Reference: article PMC12598616, “Design and optimization of caspase-1-responsive fluorescent probes for pyroptosis imaging and anti-pyroptosis drug screening” (Chemical Science, 2025)

Legend:
[1] = test system: puncture-induced IVDD rat model; experiment: In vivo fluorescence imaging of intervertebral disc degeneration; set-up: species or system Sprague-Dawley rat; conditions: intradiscal injection, 0, 1, 2, 4 weeks after puncture
Method: and signals were collected from 530 to 610 nm.
Chondrocytes spheroid cultivation
Chondrocytes were isolated from articular cartilage and resuspended in 1mL DMEM/F12 medium containing 10 μM ITS-A. A total of […] were counted and transferred into centrifuge tubes. The cells were incubated in these tubes with half of the medium changed periodically.
Intracellular imaging in chondrocytes and 3D cell spheroids
The chondrocytes or 3D cell spheroids were seeded in dishes and cultured overnight. Subsequently, the cells or spheroids were incubated with H2O2 for 30, 60 and 90 minutes. Afterward, the cells were further incubated in medium containing 5 μM FPy1 for 1 hour. Fluorescence imaging was then performed with an excitation of 514 nm, and signals were […]
Flow cytometry assays in THP-1 cells
The flow cytometry assays were performed to evaluate the response of FPy1 in THP-1 cells. THP-1 cells were seeded in 6-well plates at a density of 10^5 cells per well and cultured overnight. […] The results were analyzed with using FlowJo […]
Fixed cells or tissue sections were washed with PBS, permeabilized with 0.2 % Triton X-100 (Sigma–Aldrich) for 20 minutes, and blocked with 5 % bovine serum albumin for 1 hour at 37 °C. […] Staining results were examined under a fluorescence microscope (Olympus, IX83-FV3000) and quantified using ImageJ (Bethesda, MD, V1.8.0, NIH). […]

[2] = test system: Cas-1 in chondrocyte spheroids; experiment: Imaging in chondrocyte 3D cell spheroids; type: cell-based; conditions: H2O2 2 mM 30, 60, 90 min; FPy1 5 μM; compared with 2D cultures
Method: The decline in chondrocyte function plays a crucial role in the pathogenesis of OA. Inflammasome-mediated chondrocyte pyroptosis has been closely associated with matrix degradation and cartilage degeneration in OA.[38] To model OA in vitro, primary chondrocytes were stimulated with H2O2 (2 mM) for different durations, followed by staining with FPy1 (5 μM) and fluorescence imaging to monitor the progression of pyroptosis under oxidative stress. […] To better mimic the in vivo pathological features of OA, primary chondrocytes were also cultured as three-dimensional spheroids and stimulated with H2O2. […] Furthermore, we evaluated the capability of FPy1 to monitor pyroptosis progression at different stages of OA in a mouse model. […] The pathological manifestations in the corresponding tissues became more pronounced with longer modeling periods, consistent with the fluorescence imaging results obtained using FPy1. […]
Chondrocytes were isolated from articular cartilage and resuspended in 1mL DMEM/F12 medium containing 10 μM ITS-A. A total of […] were counted and transferred into centrifuge tubes. […]
The chondrocytes or 3D cell spheroids were seeded in dishes and cultured overnight. […] Fluorescence imaging was then performed with an excitation of 514 nm, and signals were […]

–FLTDG– [FPy1, RhoB donor, hNR quencher]
in vivo fluorescence at puncture site ([1]; Co5/6, Co6/7, Co7/8): significant enhancement of fluorescence at the corresponding areas
differentiation of IVDD stages by fluorescence intensity [1]: could significantly differentiate the four different stages of IVDD
fluorescence enhancement in chondrocyte spheroids [2]: more pronounced fluorescence enhancement in chondrocyte spheroids than in two-dimensional cultures
